How the values were obtained:
Assay type in all cases: in vivo
[1] = system: green peach aphid (Myzus persicae); assay: Myzus test; conditions: 1000 ppm
Method: To prepare a suitable active compound preparation, 1 part by weight of active compound is mixed with the stated amounts of solvent and emulsifier and the concentrate is diluted with emulsifier-containing water to the desired concentration.
Cabbage leaves (Brassica oleracea), which are severely infested with the green peach aphid (Myzus persicae) are treated by immersing them into the active compound preparation of the desired concentration.
After the desired time, the destruction rate is determined in %. 100% means that all of the aphids have been destroyed; 0% means that none of the aphids have been destroyed.

[2] = system: larvae of the mustard beetle (Phaedon cochleariae); assay: Phaedon larvae test; conditions: 1000 ppm
Method: [table] To produce a suitable preparation of active compound, 1 part by weight of active compound is mixed with the stated amounts of solvent and emulsifier, and the concentrate is diluted with emulsifier-containing water to the desired concentration. Cabbage leaves (Brassica oleracea) are treated by being dipped into the preparation of active compound of the desired concentration and are infested with the larvae of the mustard beetle (Phaedon cochleariae) while the leaves are still moist.

Setaria [3] = assay: Pre-emergence test; conditions: greenhouse, scored after three weeks
Method: (§1) [table] To prepare a suitable active compound preparation, 1 part by weight of active compound is mixed with the stated amount of solvent, the stated amount of emulsifier is added, and the concentrate is diluted with water to the desired concentration. Seeds of the test plant are sown in normal soil. After approximately 24 hours, the soil is sprayed with the active compound preparation in such a way that the amounts of active compound desired in each case are applied per unit area. The concentration of the spray mixture is chosen in such a way that the amounts of active compound desired in each case are applied in 1 000 1 of water/ha. After three weeks, the degree of damage of the plants is scored in % damage in comparison with the development of the untreated control.

Alopecurus [4] = assay: Pre-emergence test; conditions: greenhouse, scored after three weeks
Method: as §1

Sinapis [5] = assay: Pre-emergence test; conditions: greenhouse, 250 g a.i./ha, scored after three weeks
Method: as §1

Avena fatua [6] = assay: Pre-emergence test; conditions: greenhouse, 250 g a.i./ha, scored after three weeks
Method: as §1

Abultilon [7] = assay: Pre-emergence test; conditions: greenhouse, 250 g a.i./ha, scored after three weeks
Method: as §1

Echinochloa [8] = assay: Pre-emergence test; conditions: greenhouse, 250 g a.i./ha, scored after three weeks
Method: as §1

[9] = system: greenhouse red spider mite (Tetranychus urticae); assay: Tetranychus test (OP-resistant/immersion treatment)
Method: (§2) To produce a suitable preparation of active compound, 1 part by weight of active compound is mixed with the stated amounts of solvent and emulsifier, and the concentrate is diluted with emulsifier-containing water to the desired concentration.
Bean plants (Phaseolus vulgaris) which are severely infested with all stages of the greenhouse red spider mite (Tetranychus urticae) are dipped into a preparation of the active compound of the desired concentration.
After the desired time, the activity in % is determined. 100% means that all the spider mites have been killed; 0% means that none of the spider mites have been killed.

sugar beet [10] = assay: Post-emergence test; conditions: greenhouse, 250 g a.i./ha, scored after three weeks
Method: (§3) To prepare a suitable active compound preparation, 1 part by weight of active compound is mixed with the stated amount of solvent, the stated amount of emulsifier is added, and the concentrate is diluted with water to the desired concentration.
(§4) Test plants with a height of 5-15 cm are sprayed with the active compound preparation in such a way that the amounts of active compound desired in each case are applied per unit area. The concentration of the spray mixture is chosen in such a way that the amounts of active compound desired in each case are applied in 1 000 1 of water/ha.
(§5) After three weeks, the degree of damage of the plants is scored in % damage in comparison with the development of the untreated control.
(§6) The figures denote: • 0% =no effect (like untreated control) • 100% =total destruction

Setaria [11] = assay: Post-emergence test; conditions: greenhouse, 250 g a.i./ha, scored after three weeks
Method: as §3, §4, §5, §6

Alopecurus [12] = assay: Post-emergence test; conditions: greenhouse, 250 g a.i./ha, scored after three weeks
Method: as §3, §4, §5, §6

Sinapis [13] = assay: Post-emergence test; conditions: greenhouse, 250 g a.i./ha, scored after three weeks
Method: as §3, §4, §5, §6

Avena fatua [14] = assay: Post-emergence test; conditions: greenhouse, 250 g a.i./ha, scored after three weeks
Method: as §3, §4, §5, §6

Abultilon [15] = assay: Post-emergence test; conditions: greenhouse, 250 g a.i./ha, scored after three weeks
Method: as §3, §4, §5, §6

Echinochloa [16] = assay: Post-emergence test; conditions: greenhouse, 250 g a.i./ha, scored after three weeks
Method: as §3, §4, §5, §6

Meloidogyne incognita = assay: Meloidogyne test; conditions: 20 ppm, with reference to gall formation
Method: (§7) To prepare a suitable active compound preparation, 1 part by weight of active compound is mixed with the stated amounts of solvent and emulsifier and the concentrate is diluted with water to the desired concentration.
Containers are filled with sand, active compound solution, Meloidogyne incognita egg/larval suspension and lettuce seeds. The lettuce seeds germinate and the plantlets develop. The galls develop on the roots.
After the desired time, the nematicidal efficacy is determined I n % with reference to gall formation. 100% means that no galls were found; 0% means that the number of galls on the treated plants corresponds to that of the untreated control.

[17] = system: black bean aphids (Aphis fabae); assay: Aphis test, contact action; conditions: 1000 ppm
Method: as §7
Shoots of young field bean plants (Vicia faba) which are severely infested with black bean aphids (Aphis fabae) are treated by being dipped into the active compound preparation of the desired concentration.
After the desired period of time, the destruction is determined in %. 100% means that all of the aphids have been destroyed; 0% means that no aphids have been destroyed.

sugar beet [18] = assay: Pre-emergence test; conditions: greenhouse, scored after three weeks
Method: as §1

Matricaria = assay: Pre-emergence test; conditions: greenhouse, 125 g a.i./ha, scored after three weeks
Method: as §1

Lolium = assay: Pre-emergence test; conditions: greenhouse, 125 g a.i./ha, scored after three weeks
Method: as §1

Viola = assay: Pre-emergence test; conditions: greenhouse, 125 g a.i./ha, scored after three weeks
Method: as §1

Cassia = assay: Pre-emergence test; conditions: greenhouse, 125 g a.i./ha, scored after three weeks
Method: as §1

[19] = system: caterpillars of the diamond-back moth (Plutella xylostella); assay: Plutella test; conditions: 1000 ppm
Method: as §2
Cabbage leaves (Brassica oleracea) are treated by being dipped into the preparation of active compound of the desired concentration and are infested with caterpillars of the diamond-back moth (Plutella xylostella) while the leaves are still moist.
(§8) After the desired time, the destruction in % is determined. 100% means that all the caterpillars have been killed; 0% means that none of the caterpillars have been killed.

[20] = system: green rice leafhopper (Nephotettix cincticeps); assay: Nephotettix test; conditions: 1000 ppm
Method: To produce a suitable preparation of active compound, 1 part
by weight of active compound is mixed with the stated amounts of solvent and emulsifier, and the concentrate is diluted with emulsifier-containing water to the desired concentration.
Rice seedlings (Oryza sativa) are treated by being dipped into the preparation of active compound of the desired concentration and are infested with the green rice leafhopper (Nephotettix cincticeps) while the leaves are still moist.
After the desired time, the destruction in % is determined. 100% means that all the leafhoppers have been killed; 0% means that none of the leafhoppers have been killed.

[21] = system: caterpillars of the armyworm (Spodoptera frugiperd); assay: Spodoptera frugiperda test; conditions: 1000 ppm
Method: as §2
Cabbage leaves (Brassica oleracea) are treated by being dipped into the preparation of active compound of the desired concentration and are infested with caterpillars of the armyworm (Spodoptera frugiperd) while the leaves are still moist.
as §8

Amaranthus = assay: Post-emergence test; conditions: greenhouse, 250 g a.i./ha, scored after three weeks
Method: as §3, §4, §5, §6

Row | Compound | Destruction in % after 6 d [1] | Destruction in % after 7 d [2] | degree of damage, Setaria (Setaria [3]; 250 g a.i./ha) | degree of damage, Alopecurus (Alopecurus [4]; 250 g a.i./ha) | degree of damage, Sinapis (Sinapis [5]) | degree of damage, Avena fatua (Avena fatua [6]) | degree of damage, Echinochloa (Echinochloa [8]) | degree of damage, sugar beet (sugar beet [10]) | degree of damage, Setaria (Setaria [11]) | degree of damage, Alopecurus (Alopecurus [12]) | degree of damage, Avena fatua (Avena fatua [14]) | degree of damage, Echinochloa (Echinochloa [16]) | Destruction in % after 14 d (Meloidogyne incognita) | Destruction in % after 7 d [19] | Destruction in % after 7 d ([9]; 1000 ppm) | Destruction in % after 6 d [20] | further results
1 | CCc1cc(Cl)cc(OC)c1C1=C(O)C2(CCC(OC)CC2)NC1=O (single isomer, unassigned) [Example I-1-a-3] | 90% | 80% | 100% | 80% | 80% | 100% | 100% | 0% | 100% | 100% | 100% | 100% | 98% | – | – | – | degree of damage, Abultilon (Abultilon [7]): 80%; Destruction in % after 7 d ([9]; 100 ppm): 80%; degree of damage, Sinapis (Sinapis [13]): 80%; degree of damage, Abultilon (Abultilon [15]): 70%
2 | CCc1cc(Cl)cc(OC)c1C1=C(O)C2(CCC(C)CC2)NC1=O (single isomer, unassigned) [Example I-1-a-4] | – | 100% | 100% | 90% | 90% | 100% | 100% | 0% | 100% | 100% | 100% | 100% | 98% | – | – | – | –
3 | COc1cc(Cl)cc(C)c1C1=C(O)C2(CCC(C)CC2)NC1=O (stereo not drawn) [Example I-1-a-1] | 95% | 100% | – | – | – | – | – | 0% | 100% | 100% | 100% | – | – | 100% | 100% | 100% | Destruction in % after 6 d [17]: 100%; degree of damage, sugar beet (sugar beet [18]; 125 g a.i./ha): 0%; degree of damage, Matricaria (Matricaria): 90%; degree of damage, Setaria (Setaria [3]; 125 g a.i./ha): 100%; degree of damage, Alopecurus (Alopecurus [4]; 125 g a.i./ha): 100%; degree of damage, Lolium (Lolium): 100%; degree of damage, Viola (Viola): 90%; degree of damage, Cassia (Cassia): 100%; Destruction in % after 7 d [21]: 100%
4 | COc1cc(Cl)cc(C)c1C1=C(O)C2(CCOCC2)NC1=O [Example I-1-a-2] | 100% | 100% | 80% | 100% | – | 80% | – | 0% | 100% | – | 100% | – | – | 100% | 95% | 100% | degree of damage, sugar beet (sugar beet [18]; 250 g a.i./ha): 0%; degree of damage, Amaranthus (Amaranthus): 90%

Reference: patent publication US7888285B2, “2,4,6-phenyl substituted cyclic ketoenols” (Bayer CropScience AG, priority 2003, dated 2011)
